This is an account of results in patent US20250018052A1, “ANTI-HER3 ANTIBODY DRUG CONJUGATE, COMPOSITION THEREOF, AND USE THEREOF” (CHIA TAI TIANQING PHARMACEUTICAL GROUP CO., LTD., priority 2021, published 2025).

Test [1] deals with NCI-N87 cells with medium HER3 expression level. Nature of the test: Cell killing activity (CellTiter-Glo), NCI-N87. The class given is cell-based. The conditions noted are these: cultured for 96 h, 120 h, or 144 h. The protocol: (§1) Cells in the logarithmic growth phase were added to a 96-well plate at 100 μL/well, and the cell density was 1×10^4/mL or […]. Adherence culture was carried out at 37° C. and 5% CO2 overnight. Sample preparation: the patritumab-eribulin conjugates were each formulated into test samples with a basal medium containing 10% FBS (initial concentration of 5 μg/mL, 5-fold gradient dilution, nine gradients). Cells subjected to overnight adherence culture were taken out. For the experimental groups, the diluted test sample was added at 50 μL/well, and for the control group, the basal medium containing 10% FBS was added at 50 µL/well. The cells were then cultured for 96 h, 120 h, or 144 h, and then a CellTiter-Glo Luminescent Cell kit (Promega, Cat No.: G7572) was used for assay. The 96-well plate was taken out, the CTG detection solution (Promega. Cat No.: G7572) was added at 75 μL/well, and the mixture was well mixed by shaking and incubated at room temperature in the dark for 10 min. Then 180 μL of solution was pipetted from each well and transferred to an opaque white plate, bubbles were removed, chemiluminescence values were read, and killing rates were calculated.
(§2) Data were analyzed using Graphpad Prism5.

The subject of test [2] is HCC1569 cells with high HER3 expression level. Nature of the test: Cell killing activity (CellTiter-Glo), HCC1569. The class given is cell-based. The following applies: cultured for 96 h, 120 h, or 144 h. On the procedure:
as §1, §2
On the technique in general: In ATP-based viability assays light output follows the ATP content of the culture.

The subject of test [3] is BT474 cells with high HER3 expression level. Nature of the test: Cell killing activity (CellTiter-Glo), BT474. Format: cell-based. The conditions noted are these: cultured for 96 h, 120 h, or 144 h. The protocol:
as §1, §2

For test [4], the system named is SKBR3 cells with medium HER3 expression level. Nature of the test: Cell killing activity (CellTiter-Glo), SKBR3. The following applies: cultured for 96 h, 120 h, or 144 h. Format: cell-based. On the procedure: as §1, §2
The test system of test [5] is JIMT-1 human breast cancer cells. As to the kind of experiment: Nude mouse subcutaneous xenograft tumor model of JIMT-1 human breast cancer cells. Format: in vivo, nude mice. The following applies: 3 mg/kg, tail vein injection, Q1W, d21; for Tumor growth inhibition rate 1-T/C: from relative tumor volume; for Tumor inhibition rate TGI: from tumor weight. The protocol: The in vivo efficacy of the patritumab-eribulin conjugates prepared in Example 4 above was evaluated by the nude mouse subcutaneous xenograft tumor models of JIMT-1 human breast cancer cells, a trastuzumab-resistant cell strain.
SPF-grade female nude mice (from Changzhou Cavens Laboratory Animal Ltd.) were inoculated subcutaneously at the right side armpit with 2×10^6 JIMT-1 cells per mouse. When the mean tumor volume reached […], the animals were divided into 5 groups of 6, and the specific grouping and administration regimen are shown in Table 6.
The day of grouping was do, and the tail vein administration was performed at d1 after grouping. The tumor volume was measured 2-3 times a week, and meanwhile, the mice were weighed and the data were recorded; the general behavior of the mice was observed and recorded every day. After the experiment was completed, the tumors were removed, weighed, and photographed.
In general terms: In xenograft studies the graft and the host belong to different species.

Test [6] deals with MCF-7 cells with high HER3 expression level. As to the kind of experiment: Cell killing activity (CellTiter-Glo), MCF-7. The class given is cell-based. The following applies: cultured for 96 h, 120 h, or 144 h. On the procedure:
as §1, §2

The subject of test [7] is MDA-MB-468 cells with medium HER3 expression level. Nature of the test: Cell killing activity (CellTiter-Glo), MDA-MB-468. Format: cell-based. The conditions noted are these: cultured for 96 h, 120 h, or 144 h. The protocol: as §1, §2
Test [8] deals with JIMT-1 cells with medium HER3 expression level. As to the kind of experiment: Cell killing activity (CellTiter-Glo), JIMT-1. The class given is cell-based, human. The conditions noted are these: cultured for 96 h, 120 h, or 144 h. The protocol: as §1, §2

Consider “Patritumab-DDDXd-D8: patritumab-DDDXd conjugate (MC-GGFG-DDDXd, deuterated MC-GGFG-DXd) with a DAR of 7.9, used as control [reference compound]”, for which the EC50 is 0.371 nM in test [1], 18.3 nM in test [2], 10.4 nM in test [3] and 57.9 nM in test [4]. In test [5], the “Tumor growth inhibition rate 1-T/C” value is listed as 24.4%. The “Tumor inhibition rate TGI” value in test [5] was 26.6%.

As for “Patritumab-eribulin-D2: patritumab-eribulin conjugate (MC-GGFG-eribulin linker-payload) with a DAR of 2.6”, the EC50 was 1.17 nM in test [6]; 3.6 nM in test [2]; 0.0935 nM in test [3]; 12.1 nM in test [7]; 0.194 nM in test [4]; 10.5 nM in test [8]. Besides, the “Tumor growth inhibition rate 1-T/C” value in test [5] worked out at 36.6%. In test [5], the “Tumor inhibition rate TGI” value is reported as 41.1%.

Take “Patritumab-eribulin-D4: patritumab-eribulin conjugate (MC-GGFG-eribulin linker-payload) with DAR of 4.0-4.2”: the concentration for a half-maximal effect (EC50) turned out to be 13.9 nM in test [1]; 0.0994 nM in test [6]; 0.778 nM in test [2]; 0.0398 nM in test [3]; 1.41 nM in test [7]; 0.043 nM in test [4]. Also, the midpoint of the response in test [8], the EC50, lay at 3.27 nM. Moreover, the “Tumor growth inhibition rate 1-T/C” value in test [5] was 65.9%. Moreover, the “Tumor inhibition rate TGI” value in test [5] was determined as 68.9%.

“Patritumab-eribulin-D8: patritumab-eribulin conjugate (MC-GGFG-eribulin linker-payload) with a DAR of 7.6”: the EC50 worked out at 0.691 nM in test [1]; 0.0361 nM in test [6]; 0.246 nM in test [2]; 0.0181 nM in test [3]; 0.321 nM in test [7]; 0.0232 nM in test [4]. In addition, the EC50 in test [8] turned out to be 0.946 nM. Further, the “Tumor growth inhibition rate 1-T/C” value in test [5] is on record as 82.9%. Further, the “Tumor inhibition rate TGI” value in test [5] was 84.3%.

For orientation: EC50 means the midpoint of the concentration-response curve. Lower therefore signals greater potency.
